These are literature values, as cited in patent US9273049B2 (North-West University, priority 2009, dated 2016).

For the series the following is noted: Class II = high permeability, low solubility.

Molecules are shown by their SMILES.

As for `Cc1ccnc2c1NC(=O)c1cccnc1N2C1CC1` [nevirapine, 11-cyclopropyl1-5,11-dihydro-4-methyl-6H-dipyrido[3,2-b: 2′,3′-e][1,4]diazepin-6-one], the FDA classification entry was “Class II”.
